Measurements reported in patent US8642801B2 (BHI Limited Partnership, priority 2003, dated 2014).

target: T1, Aβ1-40 (Homo sapiens, UniProt P05067); experiment: MS (electrospray mass spectrometry) binding assay for Aβ40; settings: Table 3C; 20 μM Aβ peptide, 100 μM compound
T1 construct: most is normally secreted as a 40 (“Aβ1-40”) or 42 (“Aβ1-42”) amino acid peptide
Text: (§1) The ability of a therapeutic compound of the invention to inhibit an interaction between an amyloidogenic protein and a glycoprotein or proteoglycan constituent of a basement membrane can be assessed by an in vitro binding assay, such as that described in U.S. Pat. No. 5,164,295, the contents of which are hereby incorporated by reference. Alternatively, the ability of a compound to bind to an amyloidogenic protein or to inhibit the binding of a basement membrane constituent (e.g., HSPG) to an amyloidogenic protein (e.g., Aβ) can be measured using a mass spectrometry assay where soluble protein, e.g., Aβ, IAPP, β2M is incubated with the compound. A compound which binds to, e.g., Aβ, will induce a change in the mass spectrum of the protein. Exemplary protocols for a mass spectrometry assay employing Aβ and IAPP can be found in the Examples, the results of which are provided in Table 3. The protocol can readily be modified to adjust the sensitivity of the data, e.g., by adjusting the amount of protein and/or compound employed. Thus, e.g., binding might be detected for test compounds noted as not having detectable binding employing less sensitive test protocols.
(§2) The test compounds were synthesized and screened by mass spectrometry (“MS”) assays, except for selected compounds which were purchased from a commercial source. The MS assay gives data on the ability of compounds to bind to proteins, in this example, to β-amyloid and IAPP.
(§3) The pH value of each sample was adjusted to 7.4 (±0.2) by addition of 0.1% aqueous sodium hydroxide. The solutions were then analyzed by electrospray ionization mass spectrometry using a Waters ZQ 4000 mass spectrometer. Samples were introduced by direct infusion at a flow-rate of 25 μL/min within 2 hr. after sample preparation. The source temperature was kept at 70° C. and the cone voltage was 20 V for all the analysis. Data were processed using Masslynx 3.5 software. The MS assay gives data on the ability of compounds to bind to soluble Aβ, whereas the ThT, EM and CD assays give data on inhibition of fibrillogenesis. In Table 3, a blank box means that a value was not determined for that compound in that assay.

T1 sequence (P05067 672-711 limits assumed): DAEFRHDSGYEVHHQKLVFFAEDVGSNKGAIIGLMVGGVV

| MS binding Aβ1-40 | SMILES |
| --- | --- |
| − (<20%=(−)) | C[C@@H]([C@H](O)c1ccccc1)N(C)CCCS(=O)(=O)O [JE] |
| ++ (40-74% binding=(++)) | O=S(=O)(O)CCCNCc1ccccc1OC(F)(F)F [IX] |

target: T2, IAPP (Homo sapiens, UniProt P10997); experiment: MS (electrospray mass spectrometry) binding assay for IAPP; settings: Table 3C; 20 μM Aβ peptide, 100 μM compound (so in the source)
T2 construct: which is a 37 amino acid peptide, derived from a larger precursor peptide, called pro-IAPP
T2 sequence (P10997 34-70 limits assumed): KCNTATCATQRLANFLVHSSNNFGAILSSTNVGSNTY
Text: as §1, §2
as §3, with “In the MS assay for Aβ40, samples were prepared as aqueous solutions (adding 20% ethanol if necessary to solubilize in water), 200 μM of a test compound and 20 μM of solubilized Aβ40, or 400 μM of a test compound and 40 μM of solubilized Aβ40. The pH” for “The pH”
The key below describes the codes used in Table 3A to quantify the binding based on the intensity of the absorption.

| MS binding IAPP | SMILES |
| --- | --- |
| ++ (40-74% binding=(++)) | C[C@@H]([C@H](O)c1ccccc1)N(C)CCCS(=O)(=O)O [JE] |
| +++ (75-100% binding=(+++)) | O=S(=O)(O)CCCNCc1ccccc1OC(F)(F)F [IX] |

target: T3, NAC peptide (Homo sapiens, UniProt P37840); experiment: Binding to NAC peptide by electrospray mass spectrometry; settings: 5:1 ratio (20 μM NAC: 100 μM test compound or 40 μM NAC: 200 μM test compound), 6.6% EtOH, pH 7.4; bound complex peak area / unbound NAC peak area
T3 construct: NAC is a 35 amino acid long peptide with highly hydrophobic stretches
Experimental: The ability of the compounds of the present invention to bind to NAC peptide in aqueous solution was evaluated. The binding ability correlates to the intensities of the peptide-compound complex peaks observed by the Electrospray Mass Spectrum. Millipore distilled deionized water was used to prepare all aqueous solutions. For pH determination a Beckman Φ36 pH meter fitted with a Corning Semi-Micro Combination pH Electrode was employed.
The optimal cone voltage was determined to be 20V.
Mass spectrometry—Mass spectrometric analysis was performed using a Waters ZQ 4000 mass spectrometer equipped with a Waters 2795 sample manager. MassLynx 4.0 (earlier by MassLynx 3.5) was used for data processing and analysis. Test compounds were mixed with disaggregated peptides in aqueous media (6.6% EtOH) at a 5:1 ratio (20 μM NAC: 100 μM of test compound or 40 μM NAC:200 μM of test compound). The pH of the mixture was adjusted to 7.4 (±0.2) using 0.1% NaOH (3-5 μL). Periodically, NAC peptide solution at 20 μM or 40 μM was also prepared in the same fashion and run as control. The spectra were obtained by introducing the solutions to the electrospray source by direct infusion using a syringe pump at a flow rate of 25 μl/min, and scanning from 100 to 2100 Da in the positive mode. The scan time was 0.9 sec per scan with an inter-scan delay of 0.1 sec and the run time was 5 min for each sample. All the mass spectra were sum of 300 scans. The desolvation and source temperature was 70° C. and the cone and capillary voltage were maintained at 20 V and 3.2 kV respectively.
The total area under the peaks for the bound NAC-compound complex divided by total area under the peaks for unbound NAC was determined for each compound tested.

| SMILES | NAC peptide Binding Strength |
| --- | --- |
| O=S(=O)(O)CCCNC1C2CC3CC(C2)CC1C3 (stereo not shown) [drawing 488] | ++ (++ = Moderate; when the total binding is between 120% and 70%) |
| NCCCCS(=O)(=O)O | + (+ = Weak; when the total binding is between 70% and 30%) |
| CC(C)(C)NCCCS(=O)(=O)O [drawing 487] | ++ (++ = Moderate; when the total binding is between 120% and 70%) |
| O=S(=O)([O-])CCCCS(=O)(=O)[O-].[Na+].[Na+] [NaO3SCH2(CH2)2CH2SO3Na] | − (− = None; when the total binding is between 30% and 0%) |
| NCCCOS(=O)(=O)[O-].[Na+] [H2NCH2CH2CH2OSO3Na] | ++ (++ = Moderate; when the total binding is between 120% and 70%) |
| O=S(=O)([O-])OCCCOS(=O)(=O)[O-].[Na+].[Na+] [NaO3SOCH2CH2CH2OSO3Na] | − (− = None; when the total binding is between 30% and 0%) |
| O=S(=O)(O)CC(O)CNC1CCCCC1 (stereo not shown) [drawing 490] | +++ (+++ = Strong; when the total binding is 120% and higher) |
| NCCS(=O)(=O)O [H2NCH2CH2SO3H] | + (+ = Weak; when the total binding is between 70% and 30%) |
| NCCOS(=O)(=O)O [NH2CH2CH2OSO3H] | − (− = None; when the total binding is between 30% and 0%) |
